Laboratory results reported in patent US11220690B2, “Formulation” (ATLANTIC PHARMACEUTICALS (HOLDINGS) LTD, priority 2017, dated 2022).

Legend:
TLR9 [1] = molecular target: T1, TLR9 (Homo sapiens, UniProt Q9NR96); test: Inhibition of TLR-9 activated by E. coli genomic DNA; format: cell-based; conditions: E. coli genomic DNA as activator of TLR-9
T1 sequence (Q9NR96 26-1032): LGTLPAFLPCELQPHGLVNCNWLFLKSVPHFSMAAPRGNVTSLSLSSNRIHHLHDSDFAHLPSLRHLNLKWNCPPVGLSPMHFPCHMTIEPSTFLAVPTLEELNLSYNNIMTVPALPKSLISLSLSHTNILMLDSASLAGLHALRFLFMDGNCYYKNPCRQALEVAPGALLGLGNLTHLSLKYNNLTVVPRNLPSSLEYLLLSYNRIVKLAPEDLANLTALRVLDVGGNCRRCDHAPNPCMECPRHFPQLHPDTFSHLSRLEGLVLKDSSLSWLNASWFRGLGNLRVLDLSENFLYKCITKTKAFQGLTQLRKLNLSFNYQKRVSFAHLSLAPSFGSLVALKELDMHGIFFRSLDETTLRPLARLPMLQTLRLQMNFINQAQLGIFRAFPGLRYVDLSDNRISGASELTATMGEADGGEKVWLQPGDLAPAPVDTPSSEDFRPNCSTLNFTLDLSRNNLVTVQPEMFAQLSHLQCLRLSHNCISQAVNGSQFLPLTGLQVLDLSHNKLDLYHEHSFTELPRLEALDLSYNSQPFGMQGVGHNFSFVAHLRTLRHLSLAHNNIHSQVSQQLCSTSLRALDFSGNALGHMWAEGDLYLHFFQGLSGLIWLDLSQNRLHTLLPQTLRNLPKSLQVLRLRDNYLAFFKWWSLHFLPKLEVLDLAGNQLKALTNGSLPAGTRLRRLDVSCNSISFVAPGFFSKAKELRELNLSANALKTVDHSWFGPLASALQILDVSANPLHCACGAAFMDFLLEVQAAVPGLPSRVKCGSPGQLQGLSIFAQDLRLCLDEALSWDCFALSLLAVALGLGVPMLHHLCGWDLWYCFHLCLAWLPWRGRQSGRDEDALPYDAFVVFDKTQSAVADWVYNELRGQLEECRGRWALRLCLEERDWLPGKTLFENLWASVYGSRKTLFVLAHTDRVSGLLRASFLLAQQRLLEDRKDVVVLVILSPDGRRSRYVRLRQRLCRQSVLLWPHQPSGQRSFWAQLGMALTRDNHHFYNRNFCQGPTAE
Description: While the data of FIG. 4 indicate that SEQ ID NO:1 is more likely to form a homodimer than a heterodimer with ODN2006, additional experiments tested the antagonist activity of SEQ ID NO:1 in the presence of E. coli genomic DNA as the activator.

[2] = Circular Dichroism (CD) spectroscopy, thermal stability of secondary structure; format: physicochemical
Description: SEQ ID NO:1 was therefore subjected to Circular Dichroism (CD) spectroscopy to gather information about the possible secondary structure. CD of DNA can be utilized to detect all 3 major forms of duplex structure (B, A and Z) and is sensitive to conditions that disrupt the structure such a heating. Of interest was the stability of any secondary structure detected at or above physiologic temperatures. Shown in FIG. 6 is the CD spectra of sample SEQ ID NO:1 in ddH20 at 4 C.
Additional thermal denaturation of the putative duplex was also studied in the presence of Na^+ at concentrations of 50 mM and 150 mM. Sodium fluoride was used as Cl^− ions interfere with the CD spectra in this UV region.
Additional experiments were conducted to test the influence of Mg^++ and polyamines on the stability of the structure.

pigmented C57BL/6N mice = test: Murine model of dry eye by scopolamine administration; format: in vivo, Mouse; conditions: for Corneal fluorescein staining score (mean ± SD): 5 μL in both eyes, one dose per day
Description: In a model of mice, the application of transdermal scopolamine patches to the mid-tail is used to reduce aqueous tear production and thus mimic lacrimal gland insufficiency. The function of scopolamine is to induce a pharmacologic blockade of cholinergic receptors in the lacrimal gland and therefore to decrease aqueous production. The desiccation is amplified by adding environmental stress Animals are exposed to a low-humidity environment and constant airflow.
• Species: Mouse. • Strain: C57BL/6N (pigmented). • Age: Approximately 6-7 weeks (at the first day of induction). • Number/sex: 55 females (study 40; reserve 15).
Mice were treated with transdermal scopolamine administration (0.5 mg/72 h; Scopoderm TTS®). The transdermal scopolamine patch was wrapped near the tail base of the mouse, secured with cellophane tape. Patches were reapplied every 48 hours.
Mice were randomized into 4 groups of 10 animals. The study was divided into 2 experimental sets with 5 animals of each group represented.
All test items, control items and comparator item were instilled in both eyes (5 μL per administration), using a micropipette.
Tear production and corneal defects were assessed at baseline, on Days 3, 6 and 10 using phenol red thread (PRT) and corneal fluorescence staining (CFS), respectively, for each animal of the 4 groups.
A) Measurement of Aqueous Tear Production PRT Test. • Tear production was measured with the PRT test (Zone-Quick, FCI-Ophthalmics) on both eyes, before administration on Day 3 and at least one hour after the second treatment for the other days of the study. The thread was placed in the lateral cantus of the lateral conjunctival fornix for 30 seconds. The thread wet by tears would turn red, indicated aqueous tear production.
B) Corneal Fluorescein Staining (CFS) • At the different time points the measurement was performed before administration on Day 3 and at least one hour after the second treatment for the other days of the study. The eyes of the animals from all groups were examined by slit-lamp observation using blue light after 0.5% fluorescein eye drop instillation (0.5 μL). Punctuate staining was recorded with the standardized National Eye Institute (NEI) grading system giving a 0-3 score to each of the 5 areas in which the corneas were divided. Results: Animal Behaviour and Body Weights

TLR9 [3] = molecular target: T1, TLR9; test: TLR9 activation (agonist) screen, TLR9/NF-kB luciferase reporter HEK 293 cell line; format: cell-based; set-up: host or cells: HEK 293 (TLR9/NF-kB luciferase reporter line); conditions: up to concentrations as high as 100 uM, 16 h treatment
Method: […] Briefly, the TLR9/NF-kB luciferase reporter HEK 293 cell line (Abeomics, San Diego, Calif.) was plated in 96-well white solid plates at 5×10^4 cells per well for 16 h. […] Luciferase activity was then measured and analyzed.

TLR9 [4] = molecular target: T1, TLR9; test: Inhibition of TLR9-mediated NF-kB induction activated by CpG ODN2006, luciferase reporter HEK 293 cell line; format: cell-based; set-up: host or cells: HEK 293 (TLR9/NF-kB luciferase reporter line)
Method: SEQ ID NO:1 was next screened for dose responsive inhibition activity to determine the IC50 against TLR9-mediated NF-kB induction at seven different doses (0.1, 1, 5, 10, 25, 50 and 100 μM) in triplicate. Briefly, the TLR9/NF-kB luciferase reporter HEK 293 cell line was plated in 96-well white solid plates at 5×10^4 cells per well for 16 h. Cells were pretreated with different doses of SEQ ID NO:1 in triplicate for 1 h. Cells were then treated with 20 ug/ml of CpG ODN2006 to activate TLR9. After 16 h, luciferase activity was measured and analyzed.

alicaforsen (GCCCAAGCTGGCATCCGTCA; chemistry not given here; listed as Homo sapiens) [SEQ ID NO:1]
antagonist activity in the presence of E. coli genomic DNA as the activator (TLR9 [1]): remained antagonistic | intensity of the 190 nm peak after cooling back ([2]; 50 and 150 mM sodium, samples cooled back to 20° C. after heating): returned to pre-heated levels | structure retained (intensity of the 190 nm peak) on heating ([2]; both 50 and 150 mM sodium (sodium fluoride), to 40° C.): at least 50% | loss of signal strength of positive CD band at 190 nm ([2]; in ddH20, heating to 80° C.): > 85% | effect of spermine on secondary structure (CD spectra) ([2]; spermine at 5 mM in the presence of 50 mM Na+): completely abolished the secondary structure | Corneal fluorescein staining score (mean ± SD) (pigmented C57BL/6N mice; Day 6, alicaforsen 1 mM): 10.5 ± 2.6 | Corneal fluorescein staining score (mean ± SD) (pigmented C57BL/6N mice; Day 6, alicaforsen 10 mM): 10.8 ± 2.0 | Corneal fluorescein staining score (mean ± SD) (pigmented C57BL/6N mice; Day 10, alicaforsen 1 mM, listed as ALICAFORSEN): 9.3 ± 3.1 | Corneal fluorescein staining score (mean ± SD) (pigmented C57BL/6N mice; Day 10, alicaforsen 1 mM, listed as alicaforsen): lower than the Vehicle group | Corneal fluorescein staining score (mean ± SD) (pigmented C57BL/6N mice; Day 10, alicaforsen 10 mM, listed as ALICAFORSEN): 9.7 ± 2.2 | Corneal fluorescein staining score (mean ± SD) (pigmented C57BL/6N mice; Day 10, alicaforsen 10 mM, listed as alicaforsen): lower than the Vehicle group | clinical tolerability (pigmented C57BL/6N mice; multiple topical administrations, 1 mM and 10 mM): clinically well tolerated | agonist activity (TLR9 activation) (TLR9 [3]): devoid of agonist activity | TLR-9 antagonist activity (TLR9 [4]; ODN2006 as activator): antagonist of TLR-9 | concentrations required for TLR-9 antagonism compared with inhibition of ICAM-1 expression (TLR9 [4]; comparative dose responses, FIG. 3): requires higher concentrations than the inhibition of ICAM-1 expression
